According to ChEMBL document CHEMBL1201862, “PubChem BioAssay data set” (2004):
Active and inactive are the calls of the source.

Key:
[1] = general cell-killing toxicity readout – plate reader, dry powder samples, cytotoxicity control for PAX8 inhibitor project, dose response (AID 743021); type: functional, cell-based
[2] = molecular target: FAD-linked sulfhydryl oxidase ALR (Homo sapiens, UniProt P55789); experiment: ALR-catalysed DTT oxidation blockers – biochemical, H2O2 detection, luminescence, cherry-pick, dose response (AID 493248)
Chain of FAD-linked sulfhydryl oxidase ALR (P55789 whole entry): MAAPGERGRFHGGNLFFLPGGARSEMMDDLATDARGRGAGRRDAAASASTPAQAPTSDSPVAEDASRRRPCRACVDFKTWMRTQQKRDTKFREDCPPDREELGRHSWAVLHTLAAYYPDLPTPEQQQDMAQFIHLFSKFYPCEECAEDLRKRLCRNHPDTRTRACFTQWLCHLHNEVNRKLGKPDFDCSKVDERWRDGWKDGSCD

[3] = molecular target: T1, Microphthalmia-associated transcription factor (Homo sapiens, UniProt O75030); experiment: reducers of TRPM1 reporter luminescence, concentration series – cell-based, SK-MEL-5, cherry-picked, set 3, MITF inhibitor project, dose response (AID 493073); type: functional;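 note: SK-MEL-5 melanoma cells with luciferase driven by the MITF target TRPM1 promoter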
T1 sequence (O75030 whole entry): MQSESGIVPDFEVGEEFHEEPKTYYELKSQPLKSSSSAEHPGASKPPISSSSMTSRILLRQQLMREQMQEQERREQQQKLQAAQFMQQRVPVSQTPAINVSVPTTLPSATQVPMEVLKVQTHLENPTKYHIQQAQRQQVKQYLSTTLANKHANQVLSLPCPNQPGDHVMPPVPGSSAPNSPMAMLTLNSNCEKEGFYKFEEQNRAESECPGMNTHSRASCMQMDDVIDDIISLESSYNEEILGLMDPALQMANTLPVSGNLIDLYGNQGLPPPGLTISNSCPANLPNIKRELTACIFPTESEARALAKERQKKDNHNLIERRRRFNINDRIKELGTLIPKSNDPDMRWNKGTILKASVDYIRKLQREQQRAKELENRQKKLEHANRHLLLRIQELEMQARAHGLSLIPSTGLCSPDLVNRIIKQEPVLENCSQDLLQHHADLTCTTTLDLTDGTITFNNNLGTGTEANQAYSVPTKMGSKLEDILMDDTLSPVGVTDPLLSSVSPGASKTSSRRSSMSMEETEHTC

[4] = blockade of melanocortin 4 receptor signaling – cell-based, plate reader, cherry pick, counter-screen for LGR2 antagonist project, dose response (AID 743444); type: functional;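 note: transfected HEK 293 cells stimulated with alpha-MSH peptide; potency of inhibitors of the alpha-MSH evoked signal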
[5] = blockers of bursicon-stimulated LGR2 cAMP reporter – cell-based, HEK293, CRE-luciferase reporter, cherry pick, set 2, dose response (AID 743343); type: functional;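 note: transfected cells were stimulated with diluted bursicon conditioned medium after compound addition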
[6] = off-target signal loss in HeLa-CEM21 co-culture – HeLa F-luc CTL cells, cherry-picked, counter-screen for HIV-1 Env fusion inhibitor project, dose response (AID 652040); type: functional, cell-based;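 note: potency for signal decrease marking cytotoxic or nonspecific inhibition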
[7] = molecular target: Paired box protein Pax-8 (Homo sapiens, UniProt Q06710); experiment: PAX8 transcriptional activity inhibition in RMG-I – RMG-I cells, luciferase, cherry-pick, dose response (AID 687027); type: functional, cell-based;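 note: luciferase reporter driven by Pax8 target thyroperoxidase promoter measured by SteadyGlo luminescence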
Chain of Paired box protein Pax-8 (Q06710 whole entry, the tested form may be a part): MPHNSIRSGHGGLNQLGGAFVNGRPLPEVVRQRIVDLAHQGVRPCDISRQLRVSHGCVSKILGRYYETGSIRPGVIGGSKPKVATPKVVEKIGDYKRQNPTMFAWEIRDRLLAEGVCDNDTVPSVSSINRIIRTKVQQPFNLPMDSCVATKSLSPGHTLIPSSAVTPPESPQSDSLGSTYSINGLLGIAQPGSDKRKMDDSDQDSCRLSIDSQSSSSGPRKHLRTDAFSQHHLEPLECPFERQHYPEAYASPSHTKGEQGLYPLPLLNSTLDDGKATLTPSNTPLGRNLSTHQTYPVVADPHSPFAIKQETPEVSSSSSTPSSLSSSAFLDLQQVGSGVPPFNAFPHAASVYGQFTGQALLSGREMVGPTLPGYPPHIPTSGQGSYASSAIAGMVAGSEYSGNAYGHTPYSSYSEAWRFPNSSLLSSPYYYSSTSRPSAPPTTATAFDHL

[8] = blockers of HIV-1 envelope-mediated cell-cell fusion – cherry-pick, dose response (AID 652057); type: functional, cell-based
[9] = viability loss in HEK293 cells – cell-based, plate reader, cherry-picked samples, cytotoxicity control, dose response (AID 743446); type: functional
[10] = blockers of HIV-1 ZM109 envelope-driven cell-cell fusion – HeLa effector, CEM target cells, luciferase, cherry-pick, dose response (AID 652058); type: functional, cell-based;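 note: luciferase signal from HIV-1 Env mediated cell-cell fusion of effector and target cells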
[11] = molecular target: T2, Aminopeptidase N (Plasmodium falciparum FcB1/Columbia, UniProt O96935); experiment: malaria alanyl aminopeptidase activity blockers – biochemical, fluorogenic H-Leu-NHMec substrate, 1536-well (AID 1445); design: species or system Plasmodium falciparum 3D7, 3D7
T2 sequence (O96935 whole entry): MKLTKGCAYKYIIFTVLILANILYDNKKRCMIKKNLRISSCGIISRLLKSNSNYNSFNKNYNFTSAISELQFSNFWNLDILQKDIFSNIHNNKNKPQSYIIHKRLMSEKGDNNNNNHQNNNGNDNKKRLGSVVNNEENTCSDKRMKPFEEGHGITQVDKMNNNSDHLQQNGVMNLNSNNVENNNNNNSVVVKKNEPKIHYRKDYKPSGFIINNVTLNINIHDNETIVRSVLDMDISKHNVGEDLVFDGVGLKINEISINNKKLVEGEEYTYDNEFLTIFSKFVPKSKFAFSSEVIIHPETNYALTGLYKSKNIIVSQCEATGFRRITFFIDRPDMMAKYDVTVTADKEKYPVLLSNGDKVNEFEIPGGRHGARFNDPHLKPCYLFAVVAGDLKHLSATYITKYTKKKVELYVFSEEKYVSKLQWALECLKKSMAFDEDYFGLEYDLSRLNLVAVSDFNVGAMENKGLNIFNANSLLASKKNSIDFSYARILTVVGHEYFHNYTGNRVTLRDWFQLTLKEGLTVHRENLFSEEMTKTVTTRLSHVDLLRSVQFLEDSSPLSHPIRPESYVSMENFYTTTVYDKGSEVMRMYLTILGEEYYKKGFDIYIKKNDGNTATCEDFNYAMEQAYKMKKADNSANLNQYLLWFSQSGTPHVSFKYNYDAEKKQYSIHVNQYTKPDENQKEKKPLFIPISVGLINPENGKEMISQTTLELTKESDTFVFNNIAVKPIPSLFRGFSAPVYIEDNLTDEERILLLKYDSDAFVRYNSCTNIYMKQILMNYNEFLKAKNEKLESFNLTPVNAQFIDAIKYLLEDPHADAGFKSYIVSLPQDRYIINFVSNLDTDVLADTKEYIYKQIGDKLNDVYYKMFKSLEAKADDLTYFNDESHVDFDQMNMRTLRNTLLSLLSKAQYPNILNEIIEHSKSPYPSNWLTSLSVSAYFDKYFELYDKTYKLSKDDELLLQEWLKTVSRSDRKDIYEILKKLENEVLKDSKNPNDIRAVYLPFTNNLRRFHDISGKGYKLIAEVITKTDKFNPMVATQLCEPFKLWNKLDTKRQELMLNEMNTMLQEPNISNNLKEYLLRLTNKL

[12] = HIV-1 AD8 envelope cell-cell fusion blockers – cherry-pick, dose response (AID 652062); type: functional, cell-based;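 note: luciferase signal from cell-cell fusion driven by HIV-1 clade B AD8 Env; potency is for inhibitors of fusion seen as a drop in luminescence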
[13] = test system: HeLa; experiment: viability loss in HeLa cells – cell-based, 24 h, cherry-picked samples, cytotoxicity control, dose response (AID 504726); type: functional; conditions: Homo sapiens;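 note: potency for cytotoxicity as loss of luminescence signal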
[14] = Luminescence-based counterscreen assay for KLF5 inhibitors: dose response cell-based high throughput screening assay to identify cytotoxic compounds using the IEC-6 intestinal epithelial cell line. [Related pubchem assays: 1700 (Primary screen.), 1834 (Confirmation screen.), 1858 (Summary AID.), 1905 (Counterscreen.)]; type: functional
[15] = molecular target: T3, Sentrin-specific protease 7 (Homo sapiens, UniProt Q9BQF6); type: functional;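 note: Luminescence-based dose-response confirmation of ultra-high-throughput screening hits, measuring inhibition of SENP7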
T3 sequence (Q9BQF6 whole entry): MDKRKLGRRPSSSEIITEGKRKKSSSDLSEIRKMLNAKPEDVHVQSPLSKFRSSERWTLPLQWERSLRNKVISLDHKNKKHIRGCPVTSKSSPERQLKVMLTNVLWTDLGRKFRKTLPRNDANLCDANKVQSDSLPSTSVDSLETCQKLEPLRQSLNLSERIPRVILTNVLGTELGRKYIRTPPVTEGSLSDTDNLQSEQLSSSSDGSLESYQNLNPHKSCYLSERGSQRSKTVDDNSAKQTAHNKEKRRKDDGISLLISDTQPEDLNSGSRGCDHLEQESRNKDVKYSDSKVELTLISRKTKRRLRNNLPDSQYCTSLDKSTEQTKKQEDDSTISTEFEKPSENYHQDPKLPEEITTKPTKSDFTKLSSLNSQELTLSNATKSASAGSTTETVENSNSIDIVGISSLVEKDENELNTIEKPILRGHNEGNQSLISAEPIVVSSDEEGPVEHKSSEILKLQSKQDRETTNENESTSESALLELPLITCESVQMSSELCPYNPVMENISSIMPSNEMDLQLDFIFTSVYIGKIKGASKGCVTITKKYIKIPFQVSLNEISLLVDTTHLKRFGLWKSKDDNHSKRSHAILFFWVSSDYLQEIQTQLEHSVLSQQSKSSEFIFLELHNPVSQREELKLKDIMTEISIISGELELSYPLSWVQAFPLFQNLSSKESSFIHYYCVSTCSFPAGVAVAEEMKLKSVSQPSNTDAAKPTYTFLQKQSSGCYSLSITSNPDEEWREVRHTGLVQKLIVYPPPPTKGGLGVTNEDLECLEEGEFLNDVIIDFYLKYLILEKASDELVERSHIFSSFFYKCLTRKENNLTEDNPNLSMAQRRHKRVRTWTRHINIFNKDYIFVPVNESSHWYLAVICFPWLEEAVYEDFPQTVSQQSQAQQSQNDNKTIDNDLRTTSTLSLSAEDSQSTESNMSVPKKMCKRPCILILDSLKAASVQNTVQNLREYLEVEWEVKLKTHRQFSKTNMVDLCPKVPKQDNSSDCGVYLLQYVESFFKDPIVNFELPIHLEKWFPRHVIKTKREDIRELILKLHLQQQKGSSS

[16] = cells
[17] = molecular target: Luciferin 4-monooxygenase (Photinus pyralis, UniProt P08659); experiment: Counter Screen for Luciferase-based Assay Positives. [Related pubchem assays: 620, 618, 411 ]
Chain of Luciferin 4-monooxygenase (P08659 whole entry, the tested form may be a part): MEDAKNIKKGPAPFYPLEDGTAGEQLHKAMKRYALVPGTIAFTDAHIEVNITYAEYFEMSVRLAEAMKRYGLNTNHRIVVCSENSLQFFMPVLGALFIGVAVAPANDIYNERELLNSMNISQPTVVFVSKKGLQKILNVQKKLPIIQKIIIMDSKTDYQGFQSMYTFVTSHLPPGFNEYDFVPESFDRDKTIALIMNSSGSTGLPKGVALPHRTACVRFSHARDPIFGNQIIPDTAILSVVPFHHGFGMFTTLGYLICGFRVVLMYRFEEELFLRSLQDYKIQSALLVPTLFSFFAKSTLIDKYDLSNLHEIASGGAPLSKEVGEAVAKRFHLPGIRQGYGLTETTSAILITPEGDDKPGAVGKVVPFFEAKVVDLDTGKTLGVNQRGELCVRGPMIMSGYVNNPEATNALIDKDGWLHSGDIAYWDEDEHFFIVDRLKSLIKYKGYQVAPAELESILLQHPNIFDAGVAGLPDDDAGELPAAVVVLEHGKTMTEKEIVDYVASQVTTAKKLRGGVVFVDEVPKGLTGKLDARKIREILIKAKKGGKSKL

[18] = molecular target: T4, Oxysterols receptor LXR-beta (Homo sapiens, UniProt P55055); type: functional, cell-based;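 note: Cell-based luminescence dose-response assay of agonist activity at LXR, run as a confirmatory counterscreen to a daf-12 agonist screen; HEK293 cells with Gal4-LXR fusion and GAL4-driven luciferase reporter; agonist potency from rising luciferase signal of a Gal4-LXR reporter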
T4 sequence (P55055 whole entry): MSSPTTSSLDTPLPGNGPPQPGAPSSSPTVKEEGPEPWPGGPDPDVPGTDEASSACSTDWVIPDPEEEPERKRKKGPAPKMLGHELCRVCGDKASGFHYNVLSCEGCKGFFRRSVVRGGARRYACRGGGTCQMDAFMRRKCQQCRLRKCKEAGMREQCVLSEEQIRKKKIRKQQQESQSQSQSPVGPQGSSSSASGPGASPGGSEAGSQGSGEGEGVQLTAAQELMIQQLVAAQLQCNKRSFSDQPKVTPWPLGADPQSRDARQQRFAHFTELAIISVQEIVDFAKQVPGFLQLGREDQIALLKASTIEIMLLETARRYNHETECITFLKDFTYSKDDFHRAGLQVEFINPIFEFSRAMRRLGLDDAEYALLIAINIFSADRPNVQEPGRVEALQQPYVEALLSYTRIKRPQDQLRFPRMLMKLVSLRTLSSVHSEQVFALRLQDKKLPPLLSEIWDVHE

[19] = test system: HT-1080; experiment: HT1080 cell viability loss – fluorescence readout (AID 620); type: functional, cell-based; conditions: Homo sapiens
[20] = molecular target: T5, Sentrin-specific protease 8 (Homo sapiens, UniProt Q96LD8); type: functional;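 note: luminescence read-out of SENP8 inhibition, dose-response confirmation following an ultra-high-throughput screen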
T5 sequence (Q96LD8 whole entry): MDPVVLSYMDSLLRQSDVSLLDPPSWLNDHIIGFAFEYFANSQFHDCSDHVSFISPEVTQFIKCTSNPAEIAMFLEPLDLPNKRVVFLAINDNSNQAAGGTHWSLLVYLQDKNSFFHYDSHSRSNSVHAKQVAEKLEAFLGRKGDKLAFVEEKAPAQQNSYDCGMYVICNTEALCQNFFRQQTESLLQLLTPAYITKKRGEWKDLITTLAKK

[21] = molecular target: T6, Caspase-3 (Homo sapiens, UniProt P42574); type: functional;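 note: Dose-response selectivity test against caspase-3 for candidate inhibitors of sentrin-specific proteases (SENPs)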
T6 sequence (P42574 whole entry): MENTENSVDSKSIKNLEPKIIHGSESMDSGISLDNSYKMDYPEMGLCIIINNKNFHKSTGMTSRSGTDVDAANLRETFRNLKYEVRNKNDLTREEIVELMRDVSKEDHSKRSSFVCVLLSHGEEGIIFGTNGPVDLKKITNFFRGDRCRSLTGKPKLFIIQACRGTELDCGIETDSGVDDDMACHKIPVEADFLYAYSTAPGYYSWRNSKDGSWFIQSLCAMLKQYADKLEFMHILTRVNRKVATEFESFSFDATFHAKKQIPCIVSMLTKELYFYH

[22] = molecular target: T7, Sentrin-specific protease 6 (Homo sapiens, UniProt Q9GZR1); type: functional;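 note: Luminescence-based dose-response confirmatory assay of SENP6 inhibition, following up an ultra-high-throughput screen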
T7 sequence (Q9GZR1 whole entry): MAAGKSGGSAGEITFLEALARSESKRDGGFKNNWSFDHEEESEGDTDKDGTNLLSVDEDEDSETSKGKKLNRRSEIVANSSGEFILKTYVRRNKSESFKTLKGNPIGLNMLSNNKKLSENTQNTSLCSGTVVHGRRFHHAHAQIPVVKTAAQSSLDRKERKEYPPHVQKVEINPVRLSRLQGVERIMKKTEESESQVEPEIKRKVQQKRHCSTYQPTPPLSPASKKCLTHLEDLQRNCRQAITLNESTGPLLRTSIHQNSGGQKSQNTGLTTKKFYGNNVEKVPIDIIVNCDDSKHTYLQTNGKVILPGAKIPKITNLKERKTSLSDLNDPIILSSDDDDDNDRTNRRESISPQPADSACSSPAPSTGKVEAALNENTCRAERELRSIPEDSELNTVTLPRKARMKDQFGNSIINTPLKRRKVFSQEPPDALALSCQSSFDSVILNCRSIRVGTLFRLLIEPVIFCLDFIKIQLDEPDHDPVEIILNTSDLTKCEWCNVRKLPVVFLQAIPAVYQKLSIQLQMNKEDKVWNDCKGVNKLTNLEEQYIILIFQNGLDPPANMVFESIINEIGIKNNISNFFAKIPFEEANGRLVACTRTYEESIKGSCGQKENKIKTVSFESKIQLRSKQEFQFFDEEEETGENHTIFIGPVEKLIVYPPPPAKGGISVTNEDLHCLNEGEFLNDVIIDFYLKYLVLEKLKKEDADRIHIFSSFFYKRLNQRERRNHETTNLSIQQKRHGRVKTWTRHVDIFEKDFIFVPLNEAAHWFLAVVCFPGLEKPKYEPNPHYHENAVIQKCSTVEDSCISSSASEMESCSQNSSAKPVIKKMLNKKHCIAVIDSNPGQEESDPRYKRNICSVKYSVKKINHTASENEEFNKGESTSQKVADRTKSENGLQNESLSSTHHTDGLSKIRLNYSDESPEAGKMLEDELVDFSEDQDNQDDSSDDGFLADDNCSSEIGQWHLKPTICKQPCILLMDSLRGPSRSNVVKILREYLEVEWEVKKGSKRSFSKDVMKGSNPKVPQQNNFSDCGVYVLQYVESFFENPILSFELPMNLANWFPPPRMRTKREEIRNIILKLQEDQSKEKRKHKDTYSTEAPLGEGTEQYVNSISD

Structure (SMILES): Nc1ccc(-c2nc3ccc(C(=O)O)cc3s2)cc1
- AC50 [1]: 30400 nM (active)
- AC50 [2]: 839 nM (active)
- AC50 [3]: 866 nM (active)
- AC50 [4]: 649 nM (active)
- AC50 [5]: 749 nM (active)
- AC50 [6]: 1910 nM (active)
- AC50 [7]: 2600 nM (active)
- AC50 [8]: 1030 nM (active)
- AC50 [9]: 48600 nM (active)
- AC50 [10]: 4570 nM (active)
- IC50 [11]: 25700 nM (active)
- AC50 [12]: 1600 nM (active)
- AC50 [13]: 313000 nM (active)
- IC50 [14]: > 39800 nM (not active)

Structure (SMILES): COc1cc([N+](=O)[O-])ccc1N/C=C/C(=O)c1cccs1
- IC50 [15]: 863 nM (active)
- EC50 [16]: > 67500 nM (inactive)
- EC50 [17]: 4170 nM (active)
- EC50 [18]: > 67500 nM (inactive)
- EC50 [19]: > 50000 nM (not active)
- IC50 [20]: 2620 nM (active)
- IC50 [21]: 1530 nM (active)
- IC50 [22]: 1150 nM (active)
